Results as given in patent publication US20040198758A1, “N-heterocyclyl substituted thienyloxy-pyrimidines used as herbicides” (priority 2001, published 2004).

Key:
Experiment in all cases: greenhouse post-emergence herbicidal treatment
Assay type in all cases: in vivo
Details in all cases: application rates of 0.25 or 0.125 kg/ha
Galium aparine = test system: Galium aparine
From the text: (§1) The seeds of the test plants were sown separately for each species. For the post-emergence treatment, the test plants were first grown to a height of from 3 to 15 cm, depending on the plant habit, and only then treated with the active compounds which had been suspended or emulsified in water. The test plants were for this purpose either sown directly and grown in the same containers., or they were first grown separately as seedlings and transplanted into the test containers a few days prior to treatment. The application rate for the post-emergence treatment was 0.25 or 0.125 kg of a.s. (active substance)/ha. Depending on the species, the plants were kept at 10-25° C. or 20-35° C. The test period extended over 2 to 4 weeks. During this time, the plants were tended, and their response to the individual treatments was evaluated. Evaluation was carried out using a scale from 0 to 100. 100 means no emergence of the plants, or complete destruction of at least the above-ground parts and 0 means no damage, or normal course of growth. The plants used in the greenhouse experiments were of the following species: [table]

Amaranthus retroflexus = test system: Amaranthus retroflexus
From the text: as §1

Chenopodium album = test system: Chenopodium album
From the text: as §1

Pharbitis purpurea = test system: Pharbitis purpurea
From the text: as §1

Polygonum persicaria = test system: Polygonum persicaria
From the text: as §1

Cc1cnc(-n2ccc(C(F)(F)F)n2)nc1Oc1csc(C(F)(F)F)c1 [I 1.1, 5-methyl-2-[3-(trifluoromethyl)-1H-pyrazol-1-yl]-4-{[5-(trifluoromethyl)-3-thienyl]oxy}pyrimidine]
very good: post-emergence action against Galium aparine (Galium aparine) | post-emergence action against Amaranthus retroflexus (Amaranthus retroflexus) | post-emergence action against Chenopodium album (Chenopodium album) | post-emergence action against Pharbitis purpurea (Pharbitis purpurea) | post-emergence action against Polygonum persicaria (Polygonum persicaria)
